Data published in PubChem BioAssay (NCI).
Values joined by “and” are separate entries in the source; they are usually repeats but may differ in a detail not shown here. Equal values may be shown once.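 Interpolation was linear, between the two tested concentrations surrounding the appropriate level; five concentrations were tested over 48 hours in 96-well plates. At the GI50, growth is halved. TGI is the concentration that stops growth completely.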

How the values were obtained:
Experiment in all cases: inhibition of tumour cell growth, NCI panel, 48 h
[1] = tested on: OVCAR-5 ovarian
[2] = tested on: CCRF-CEM leukemia
[3] = tested on: SF-295 CNS
[4] = tested on: K-562 leukemia
[5] = tested on: 786-0 renal
[6] = tested on: DMS 273 small cell lung
[7] = tested on: M14 melanoma
[8] = tested on: NCI-H226 lung
[9] = tested on: HCC-2998 colon
[10] = tested on: MDA-N
[11] = tested on: SNB-78 CNS

COc1cc2c(cc1OC)C(N(C)C)C(c1ccccc1)=C2Cl (configuration not stated)
TGI [1]: > 100 µM | TGI [2]: > 100 µM | TGI [3]: 49.7 µM | TGI [4]: > 100 µM | TGI [5]: 73.9 µM | TGI [6]: 30.9 µM | TGI [7]: 34.3 µM | TGI [8]: 56.4 µM

Cc1ccc(S(=O)(=O)Oc2cc(N)c3c(n2)CCC3)cc1
TGI [1]: > 100 µM | TGI [9]: > 100 µM | TGI [2]: > 100 µM | TGI [3]: > 100 µM | TGI [4]: > 100 µM | TGI [5]: > 100 µM | TGI [7]: > 100 µM | TGI [10]: > 100 µM | TGI [8]: > 100 µM

C=C1[C@@H](O)C[C@@]23CC[C@@H]4[C@@]5(C)CC[C@@H](OC(C)=O)C(C)(C)[C@@H]5C[C@@H](OC5OC(COC(C)=O)C(O)C(O)C5O)[C@@]4(C)C2=CC[C@H]3[C@H]1C (some centres not stated)
TGI [1]: 7.08 µM | TGI [9]: 3.88 µM | TGI [2]: 9.82 µM | TGI [3]: 14.8 µM | TGI [4]: 10.6 µM | TGI [5]: 18.9 µM | TGI [7]: 16.4 µM | TGI [10]: 17.5 µM | TGI [8]: 17.4 µM

O=C(CN1CCCCC1)CC(O)(C(F)(F)F)C(F)(F)F
TGI [1]: > 100 µM | TGI [9]: > 100 µM | TGI [2]: > 100 µM | TGI [3]: > 100 µM | TGI [4]: > 100 µM | TGI [5]: > 100 µM | TGI [7]: > 100 µM | TGI [10]: > 100 µM | TGI [8]: > 100 µM

COc1cc(OCc2ccc3oc(=O)c(-c4ccccc4)nc3c2)cc(OC)c1OC
TGI [1]: > 100 µM | TGI [9]: > 100 µM | TGI [2]: > 100 µM | TGI [3]: > 100 µM | TGI [4]: > 100 µM | TGI [5]: > 100 µM | TGI [7]: > 100 µM | TGI [10]: > 100 µM | TGI [8]: > 100 µM

CC1(C)O[C@@H]2COC(=O)[C@@H]2O1
TGI [1]: > 100 µM | TGI [9]: > 100 µM | TGI [2]: > 100 µM | TGI [3]: > 100 µM | TGI [4]: > 100 µM | TGI [5]: > 100 µM | TGI [7]: > 100 µM | TGI [10]: > 100 µM | TGI [8]: > 100 µM

CCCCn1c2c(n(CCCC)c1=S)-c1c(n(CCCC)c(=S)n1CCCC)S[Se][Se]S2
TGI [1]: 6.72 µM | TGI [9]: 61.6 µM | TGI [2]: > 46.6 µM | TGI [3]: 30.5 µM | TGI [4]: > 100 µM | TGI [5]: > 43.9 µM | TGI [7]: 31.7 µM | TGI [10]: 36.3 µM | TGI [8]: 49.4 µM

CC(C)(C)N=c1n(C(C)(C)C)oc(=O)n1C(C)(C)C
TGI [1]: > 100 µM | TGI [9]: > 100 µM | TGI [2]: > 100 µM | TGI [3]: > 100 µM | TGI [4]: > 100 µM | TGI [5]: > 100 µM | TGI [7]: > 100 µM | TGI [10]: > 100 µM | TGI [8]: > 100 µM

O=C1c2ccccc2CN1c1ccc(O)cc1
TGI [1]: > 100 µM | TGI [9]: > 100 µM | TGI [2]: > 100 µM | TGI [3]: > 100 µM | TGI [4]: > 100 µM | TGI [5]: > 100 µM | TGI [7]: > 100 µM | TGI [10]: > 100 µM | TGI [8]: > 100 µM

CC(C)(C)C1=Cc2cc3cc(C(C)(C)C)[nH]c(=O)c3cc2S(=O)(=O)N1
TGI [1]: 92.5 µM | TGI [11]: > 100 µM | TGI [2]: 56.9 µM | TGI [3]: 94.4 µM | TGI [4]: > 100 µM | TGI [5]: > 100 µM | TGI [7]: 29.7 µM | TGI [8]: 47.7 µM

O=C1NCCCc2nonc21
TGI [1]: > 100 µM | TGI [9]: > 100 µM | TGI [2]: > 100 µM | TGI [3]: > 100 µM | TGI [4]: > 100 µM | TGI [5]: > 100 µM | TGI [7]: > 100 µM | TGI [10]: > 100 µM | TGI [8]: > 100 µM

NC(CSCc1ccccc1)C(=O)O (configuration not stated)
TGI [1]: > 100 µM | TGI [9]: > 100 µM | TGI [2]: > 100 µM | TGI [3]: > 100 µM | TGI [4]: > 100 µM | TGI [5]: > 100 µM | TGI [7]: > 100 µM | TGI [10]: > 100 µM | TGI [8]: > 100 µM

C[n+]1c(-c2ccccc2)cc2/c(=C\c3ccc([N+](=O)[O-])cc3)c3ccccc3n21
TGI [1]: 54.2 µM | TGI [9]: > 100 µM | TGI [2]: 8.04 µM | TGI [3]: 21.4 µM | TGI [4]: > 100 µM | TGI [5]: 18.9 µM | TGI [7]: > 37.6 µM | TGI [10]: 21.8 µM | TGI [8]: 25.4 µM

Cc1cc2c(C)cc(=O)[nH]c2cc1N
TGI [1]: > 100 µM | TGI [9]: > 100 µM | TGI [2]: > 100 µM | TGI [3]: > 100 µM | TGI [4]: > 100 µM | TGI [5]: > 100 µM | TGI [7]: > 100 µM | TGI [10]: > 100 µM | TGI [8]: > 100 µM

CSC1CC2C(CC1(C)O)C2(C)C (configuration not stated)
TGI [1]: > 100 µM | TGI [11]: > 100 µM | TGI [9]: > 100 µM | GI50 [2]: 49.3 µM and > 100 µM | TGI [2]: > 100 µM | GI50 [4]: 49.7 µM and > 100 µM | TGI [4]: > 100 µM | TGI [5]: > 100 µM | TGI [6]: > 100 µM | TGI [7]: > 100 µM | GI50 [8]: 38.5 µM and > 100 µM | TGI [8]: > 100 µM

CCOC(=O)c1[nH]cc(C)c1-c1ccn(-c2ccccc2)c1
TGI [1]: > 100 µM | TGI [9]: > 100 µM | TGI [2]: 79.3 µM | TGI [3]: > 100 µM | TGI [4]: 51 µM | TGI [5]: > 100 µM | TGI [7]: > 100 µM | TGI [10]: > 100 µM | TGI [8]: > 100 µM

CC(CC(C#N)(c1ccccc1)c1ccccc1)N1CCCCC1 (configuration not stated)
TGI [1]: > 100 µM | TGI [9]: 29.1 µM | TGI [2]: 46.6 µM | TGI [3]: 65.8 µM | TGI [4]: 45.5 µM | TGI [5]: 80.3 µM | TGI [7]: 39.1 µM | TGI [10]: 46.7 µM | TGI [8]: 46.4 µM

C/C(=C\c1ccccc1)C(=O)CCN1CCOCC1
TGI [1]: 33.4 µM | TGI [11]: 35.4 µM | TGI [9]: 34.4 µM | TGI [2]: > 67.2 µM | TGI [3]: > 100 µM | TGI [4]: > 69.7 µM | TGI [6]: 35.3 µM | TGI [8]: > 65 µM

COc1cc(/C=C2\C(=O)N(C(=O)Cc3ccccc3)N=C2C)ccc1O
TGI [1]: > 100 µM | TGI [11]: > 100 µM | TGI [9]: > 100 µM | TGI [2]: > 100 µM | TGI [3]: > 100 µM | TGI [4]: > 100 µM | TGI [5]: > 100 µM | TGI [6]: > 100 µM | TGI [7]: > 100 µM | TGI [8]: > 100 µM

Cc1ccccc1OC(C)C(=O)NN1C(=O)CC(=O)N(c2ccc(Cl)cc2)C1=S (configuration not stated)
TGI [1]: > 100 µM | TGI [9]: 71.9 µM | TGI [2]: 57 µM | TGI [3]: > 100 µM | TGI [4]: > 100 µM | TGI [5]: > 100 µM | TGI [7]: > 100 µM | TGI [10]: > 100 µM | TGI [8]: > 100 µM

COc1ccccc1NC(=O)CC(=O)N1N=C(C)C(N=Nc2ccc(S(N)(=O)=O)cc2)C1=O (configuration not stated)
TGI [1]: > 100 µM | TGI [11]: > 100 µM | TGI [9]: > 100 µM | TGI [3]: > 100 µM | TGI [5]: > 100 µM | TGI [6]: > 100 µM | TGI [7]: > 100 µM | TGI [8]: > 100 µM

COCOc1ccc(OC)cc1
TGI [1]: > 100 µM | TGI [11]: > 100 µM | TGI [9]: > 100 µM | TGI [2]: > 100 µM | TGI [3]: > 100 µM | TGI [4]: > 100 µM | TGI [6]: > 100 µM | TGI [8]: > 100 µM
